Measured values: ChEMBL document CHEMBL1136080, “(+/-)-2-(3-Piperidyl)-1,2,3,4-tetrahydroisoquinolines as a new class of specific bradycardic agents” (2003)

How the values were obtained:
Type in all cases: functional
[1] = species on record: Cavia porcellus; assay: Concentration required to produce 30% reduction (in vitro) from the initial spontaneous beat rates in isolated guinea pig atrium; conditions: Cardiac atrium
[2] = tested on: Rattus norvegicus; assay: Percentage change in heart rate from the initial value in urethane-anesthetized rats at 3 mg/kg intravenous dose
[3] = tested on: Rattus norvegicus; assay: Dose to produce minimal influence on mean blood pressure in anesthetized rats

`COc1cc2c(cc1OC)CN(C1CCCN(Cc3ccccc3)C1)CC2` (centres undefined) showed an EC30 [1] of 830 nM and a Change [2] of 33%.
Work on `COc1ccc(CCN(C)CCCN2CCc3cc(OC)c(OC)cc3CC2=O)cc1OC` [ZATEBRADINE] yielded an EC30 [1] of 260 nM and a Change [2] of 47%.
With `COc1cc2c(cc1OC)CN(C1CCCN(CCCOc3ccccc3)C1)CC2` (centres undefined) the EC30 [1] was 430 nM and the Change [2] was 40%.
`COc1cc2c(cc1OC)CN(C1CCCN(CCCCCc3ccccc3)C1)CC2` (centres undefined) showed an EC30 [1] of 1300 nM.
`COc1cc2c(cc1OC)CN(C1CCCN(CCCCc3ccccc3)C1)CC2` (centres undefined) showed an EC30 [1] of 540 nM and a Change [2] of 23%.
`COc1cc2c(cc1OC)CN(C1CCCN(CCCOc3ccc4ccccc4c3)C1)CC2` (centres undefined) showed an EC30 [1] of 840 nM and a Change [2] of 23%.
Compound `COc1ccc(OCCCN2CCCC(N3CCc4cc(OC)c(OC)cc4C3)C2)cc1` (centres undefined) has an EC30 [1] of 390 nM and a Change [2] of 40%.
Compound `COc1cc2c(cc1OC)CN(C1CCCN(CCCOc3ccc4c(c3)OCO4)C1)CC2` (centres undefined) has an EC30 [1] of 250 nM, a Change [2] of 47% and a Dose [3] of 10 mg/kg.
`COc1cc2c(cc1OC)CN(C1CCCN(CCCOc3cc(OC)c(OC)c(OC)c3)C1)CC2` (centres undefined) was tested, and the EC30 [1] was 1500 nM.
`COc1ccc(OCCCN2CCCC(N3CCc4cc(OC)c(OC)cc4C3)C2)cc1OC` (centres undefined) gave an EC30 [1] of 380 nM and a Change [2] of 47%.
Work on `COc1cc2c(cc1OC)CN(C1CCCN(CCCOc3ccc4c(c3)CCC4)C1)CC2` (centres undefined) yielded an EC30 [1] of 660 nM and a Change [2] of 38%.
For `COc1cc2c(cc1OC)CN(C1CCCN(CCCOc3ccc4c(c3)-c3ccccc3C4)C1)CC2` (centres undefined), the EC30 [1] was 4100 nM.
`COc1cc2c(cc1OC)CN(C1CCCN(CCc3ccccc3)C1)CC2` (centres undefined) was tested, and the EC30 [1] was 2200 nM.
`COc1cc2c(cc1OC)CN(C1CCCN(CCCc3ccccc3)C1)CC2` (centres undefined) was tested, and the EC30 [1] was 1200 nM.
